This note sets out measurements from article PMC5119973 (Cancer Medicine, 2016).

One experiment deals with PDGFRs. The experiment in a line: KINOMEscan active-site competitive binding assay. The note with it: range among family members.
Another experiment deals with T1, BRAF (Homo sapiens, UniProt P15056).
T1 construct: purchased DiscoveRx (KINOMEscan service)
Put plainly: KINOMEscan active-site competitive binding assay. The note with it: slash = two separate measurements.

Another experiment deals with T2, MKNK2 (Homo sapiens, UniProt Q9HBH9).
T2 construct: purchased DiscoveRx (KINOMEscan service)
T2 sequence (Q9HBH9 whole entry): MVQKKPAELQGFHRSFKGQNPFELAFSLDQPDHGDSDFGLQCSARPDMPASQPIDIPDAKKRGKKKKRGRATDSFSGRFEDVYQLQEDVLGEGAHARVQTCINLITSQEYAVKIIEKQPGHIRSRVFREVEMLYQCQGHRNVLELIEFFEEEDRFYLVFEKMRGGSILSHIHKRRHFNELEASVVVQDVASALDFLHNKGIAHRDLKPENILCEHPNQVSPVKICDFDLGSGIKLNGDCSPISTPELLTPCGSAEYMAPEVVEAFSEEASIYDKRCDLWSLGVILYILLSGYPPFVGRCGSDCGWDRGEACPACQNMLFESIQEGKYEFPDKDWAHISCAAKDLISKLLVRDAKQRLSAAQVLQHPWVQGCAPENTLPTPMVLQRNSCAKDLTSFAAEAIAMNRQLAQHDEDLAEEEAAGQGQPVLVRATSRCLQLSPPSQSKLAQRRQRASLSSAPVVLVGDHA
The experiment in a line: KINOMEscan active-site competitive binding assay. Particulars: slash = two separate measurements.

The test system of another experiment is HuLECs. The experiment in a line: VEGF‐C‐induced migration of HuLECs (scratch assay). In kind it is cell-based, human. The note with it: 100 nmol/L, 40 h. Here is the method: A sterile pipette tip was then used to scratch the cell layers, and images were taken after continued incubation for 40 h.
For another experiment, the target named is T3, TRKC (Homo sapiens, UniProt Q16288).
T3 construct: purchased DiscoveRx
T3 sequence (Q16288 32-839): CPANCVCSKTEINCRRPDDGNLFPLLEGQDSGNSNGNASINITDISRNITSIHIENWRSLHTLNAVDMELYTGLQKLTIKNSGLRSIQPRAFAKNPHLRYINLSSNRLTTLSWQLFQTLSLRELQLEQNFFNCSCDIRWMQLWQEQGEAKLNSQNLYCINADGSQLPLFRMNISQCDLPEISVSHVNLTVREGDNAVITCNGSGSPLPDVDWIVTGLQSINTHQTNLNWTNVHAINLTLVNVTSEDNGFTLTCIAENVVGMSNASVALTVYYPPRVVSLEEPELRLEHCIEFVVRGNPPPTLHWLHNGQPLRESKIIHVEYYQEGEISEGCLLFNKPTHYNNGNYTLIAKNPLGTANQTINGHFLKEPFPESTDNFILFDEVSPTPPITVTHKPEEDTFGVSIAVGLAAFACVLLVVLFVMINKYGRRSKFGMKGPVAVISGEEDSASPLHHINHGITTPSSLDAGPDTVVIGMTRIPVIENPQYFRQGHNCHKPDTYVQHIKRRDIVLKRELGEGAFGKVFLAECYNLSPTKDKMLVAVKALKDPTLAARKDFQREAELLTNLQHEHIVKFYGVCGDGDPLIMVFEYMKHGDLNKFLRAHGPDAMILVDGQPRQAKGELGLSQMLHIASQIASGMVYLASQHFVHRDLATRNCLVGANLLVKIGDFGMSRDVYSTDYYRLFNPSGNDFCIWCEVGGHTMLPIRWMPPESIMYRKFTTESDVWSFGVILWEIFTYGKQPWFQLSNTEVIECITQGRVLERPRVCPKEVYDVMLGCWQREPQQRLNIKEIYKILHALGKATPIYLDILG
The experiment in a line: KINOMEscan active-site competitive binding assay. Particulars: slash = two separate measurements.

The target of a further experiment is T4, ZAK (Homo sapiens, UniProt Q9NYL2).
T4 construct: purchased DiscoveRx
T4 sequence (Q9NYL2 whole entry): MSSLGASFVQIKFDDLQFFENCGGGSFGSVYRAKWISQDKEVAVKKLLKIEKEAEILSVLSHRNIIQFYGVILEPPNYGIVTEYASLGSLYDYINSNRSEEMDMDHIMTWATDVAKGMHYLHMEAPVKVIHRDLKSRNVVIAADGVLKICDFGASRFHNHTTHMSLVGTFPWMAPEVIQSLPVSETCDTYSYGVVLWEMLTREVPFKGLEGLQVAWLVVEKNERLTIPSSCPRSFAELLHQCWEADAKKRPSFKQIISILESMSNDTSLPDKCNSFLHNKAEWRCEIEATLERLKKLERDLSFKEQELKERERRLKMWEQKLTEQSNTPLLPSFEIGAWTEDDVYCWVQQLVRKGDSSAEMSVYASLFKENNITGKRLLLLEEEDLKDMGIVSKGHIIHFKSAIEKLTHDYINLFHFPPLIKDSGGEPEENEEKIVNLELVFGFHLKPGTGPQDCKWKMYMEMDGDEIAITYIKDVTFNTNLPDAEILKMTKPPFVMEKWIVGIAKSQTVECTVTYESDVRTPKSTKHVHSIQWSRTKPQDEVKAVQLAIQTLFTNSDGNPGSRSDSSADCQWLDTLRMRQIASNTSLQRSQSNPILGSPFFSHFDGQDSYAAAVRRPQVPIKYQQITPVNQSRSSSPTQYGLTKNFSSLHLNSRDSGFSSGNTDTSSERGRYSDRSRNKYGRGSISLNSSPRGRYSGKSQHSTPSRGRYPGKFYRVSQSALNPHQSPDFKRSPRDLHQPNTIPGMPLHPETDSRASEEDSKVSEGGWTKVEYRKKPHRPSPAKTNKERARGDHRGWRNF
The experiment in a line: KINOMEscan active-site competitive binding assay. The note with it: slash = two separate measurements.

The next experiment deals with T5, PDGFRB (Homo sapiens, UniProt P09619).
T5 construct: purchased DiscoveRx
The experiment in a line: KINOMEscan active-site competitive binding assay. Particulars: slash = two separate measurements.

The next experiment has as its target T6, KIT^V559D (Homo sapiens, UniProt P10721, V559D).
T6 construct: purchased DiscoveRx (KINOMEscan service)
The experiment in a line: KINOMEscan active-site competitive binding assay.

The next experiment deals with T7, CDK8 (Homo sapiens, UniProt P49336).
T7 construct: purchased DiscoveRx (KINOMEscan service)
T7 sequence (P49336 whole entry): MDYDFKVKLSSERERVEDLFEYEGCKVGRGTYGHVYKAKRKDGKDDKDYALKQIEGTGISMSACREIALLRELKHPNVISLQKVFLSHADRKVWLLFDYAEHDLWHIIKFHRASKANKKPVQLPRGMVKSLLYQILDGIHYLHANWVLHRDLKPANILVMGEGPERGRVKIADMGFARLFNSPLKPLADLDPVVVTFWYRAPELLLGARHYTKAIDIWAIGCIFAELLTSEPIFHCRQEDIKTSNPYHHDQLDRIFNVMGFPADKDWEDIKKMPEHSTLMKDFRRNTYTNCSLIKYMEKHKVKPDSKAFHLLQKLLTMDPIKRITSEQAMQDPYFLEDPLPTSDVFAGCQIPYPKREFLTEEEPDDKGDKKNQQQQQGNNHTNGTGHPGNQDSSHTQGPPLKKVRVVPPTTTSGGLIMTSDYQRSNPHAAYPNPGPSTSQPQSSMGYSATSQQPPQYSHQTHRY
Put plainly: KINOMEscan active-site competitive binding assay. The note with it: slash = two separate measurements.

The target of a further experiment is T8, FLT3^N841I (Homo sapiens, UniProt P36888, N841I).
T8 construct: purchased DiscoveRx
Put plainly: KINOMEscan active-site competitive binding assay.

The next experiment has as its target T9, TAK1 (Homo sapiens, UniProt O43318).
T9 construct: purchased DiscoveRx
T9 sequence (O43318 1-606): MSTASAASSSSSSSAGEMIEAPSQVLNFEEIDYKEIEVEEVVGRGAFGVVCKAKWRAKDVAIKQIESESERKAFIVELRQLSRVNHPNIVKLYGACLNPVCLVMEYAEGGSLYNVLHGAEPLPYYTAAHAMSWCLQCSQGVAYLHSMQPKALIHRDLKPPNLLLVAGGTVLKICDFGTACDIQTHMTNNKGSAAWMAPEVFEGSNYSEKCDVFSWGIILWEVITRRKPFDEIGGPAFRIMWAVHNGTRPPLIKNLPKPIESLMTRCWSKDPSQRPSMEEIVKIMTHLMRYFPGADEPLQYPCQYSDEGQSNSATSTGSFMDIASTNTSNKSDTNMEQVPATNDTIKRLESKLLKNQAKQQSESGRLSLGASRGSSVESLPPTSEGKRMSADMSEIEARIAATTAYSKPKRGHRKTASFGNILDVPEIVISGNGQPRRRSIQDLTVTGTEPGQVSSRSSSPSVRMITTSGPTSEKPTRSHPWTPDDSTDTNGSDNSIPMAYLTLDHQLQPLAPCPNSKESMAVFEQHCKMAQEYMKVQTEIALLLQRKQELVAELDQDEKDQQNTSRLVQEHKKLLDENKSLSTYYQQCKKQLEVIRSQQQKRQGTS
Put plainly: KINOMEscan active-site competitive binding assay. The note with it: slash = two separate measurements.

The next experiment concerns the target T10, KIT^A829P (Homo sapiens, UniProt P10721, A829P).
T10 construct: purchased DiscoveRx
Put plainly: KINOMEscan active-site competitive binding assay.

The next experiment concerns the target T11, ABL1-np (Homo sapiens, UniProt P00519).
T11 construct: purchased DiscoveRx (KINOMEscan service)
Put plainly: KINOMEscan active-site competitive binding assay. Particulars: ABL1-np (not phosphorylated); slash = two separate measurements.

The target of a further experiment is T12, MAP4K4 (Homo sapiens, UniProt O95819).
T12 construct: purchased DiscoveRx (KINOMEscan service)
T12 sequence (O95819 whole entry): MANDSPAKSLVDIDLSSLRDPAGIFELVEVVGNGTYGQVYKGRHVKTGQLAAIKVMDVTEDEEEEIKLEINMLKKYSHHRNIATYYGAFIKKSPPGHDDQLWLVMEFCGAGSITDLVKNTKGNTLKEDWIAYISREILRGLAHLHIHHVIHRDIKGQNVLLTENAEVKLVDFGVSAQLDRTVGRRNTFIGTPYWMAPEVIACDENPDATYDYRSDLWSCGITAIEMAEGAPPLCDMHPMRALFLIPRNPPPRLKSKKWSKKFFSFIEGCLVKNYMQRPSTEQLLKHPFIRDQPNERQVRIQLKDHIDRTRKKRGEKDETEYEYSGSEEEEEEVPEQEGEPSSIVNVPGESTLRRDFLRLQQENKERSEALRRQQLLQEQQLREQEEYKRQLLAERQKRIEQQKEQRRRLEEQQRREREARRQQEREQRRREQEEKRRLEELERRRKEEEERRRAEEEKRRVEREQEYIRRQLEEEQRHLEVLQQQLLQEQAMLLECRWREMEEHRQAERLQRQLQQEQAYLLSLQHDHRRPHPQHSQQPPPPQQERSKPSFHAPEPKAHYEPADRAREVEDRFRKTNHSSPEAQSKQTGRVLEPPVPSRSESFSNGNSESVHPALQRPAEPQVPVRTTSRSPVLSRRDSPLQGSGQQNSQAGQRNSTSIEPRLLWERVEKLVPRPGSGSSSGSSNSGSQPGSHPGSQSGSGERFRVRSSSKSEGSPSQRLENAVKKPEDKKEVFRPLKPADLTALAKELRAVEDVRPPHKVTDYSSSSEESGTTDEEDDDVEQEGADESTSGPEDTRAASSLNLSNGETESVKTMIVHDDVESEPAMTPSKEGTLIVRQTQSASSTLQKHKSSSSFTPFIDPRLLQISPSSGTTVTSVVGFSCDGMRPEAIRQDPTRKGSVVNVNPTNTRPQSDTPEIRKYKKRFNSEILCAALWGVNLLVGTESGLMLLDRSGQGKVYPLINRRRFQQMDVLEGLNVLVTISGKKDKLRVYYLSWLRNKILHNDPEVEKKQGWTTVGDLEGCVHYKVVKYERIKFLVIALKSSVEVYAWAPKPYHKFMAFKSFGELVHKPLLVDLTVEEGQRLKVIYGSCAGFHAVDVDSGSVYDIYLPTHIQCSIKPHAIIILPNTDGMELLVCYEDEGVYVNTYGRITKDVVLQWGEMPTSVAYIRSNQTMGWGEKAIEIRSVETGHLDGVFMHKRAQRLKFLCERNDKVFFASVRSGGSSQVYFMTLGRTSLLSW
Put plainly: KINOMEscan active-site competitive binding assay. Particulars: slash = two separate measurements.

Another experiment has as its target T13, FGFR2 (Homo sapiens, UniProt P21802).
T13 construct: FGFR2, but not FGFR1, is overexpressed in the SNU‐16 cell line; endogenous in cells
The experiment in a line: FGFR phosphorylation assay in SNU‐16 cells (western blot). The note with it: SNU‐16/FGFR2 cells, 0.1% bovine serum albumin, read-out: Mean ± SD IC50. In kind it is cell-based. Here is the method:
VEGFR2 assays were performed in murine fibroblasts (NIH‐3T3) in the presence of 0.1 mg/mL human serum albumin. […] Substrate phosphorylation was determined from total cell lysates by enzyme‐linked immunosorbent assay. In addition, an FGFR phosphorylation assay was performed using a human gastric carcinoma cell line (SNU‐16), with pFGFR assessed by western blot. The PDGFRA phosphorylation assay was performed by DiscoverRx using the DiscoverRx PathHunter cell line, modified to express PDGFRA. […] The assay signal was generated using a detection reagent cocktail and measured by chemoluminescence 13. Both the PDGFRA and FGFR assays were performed in the presence of 0.1 mg/mL BSA.

The next experiment has as its target T14, KIT^D816V (Homo sapiens, UniProt P10721, D816V).
T14 construct: purchased DiscoveRx
Put plainly: KINOMEscan active-site competitive binding assay.

The target in another experiment is T15, TNNI3K (Homo sapiens, UniProt Q59H18).
T15 construct: purchased DiscoveRx
T15 sequence (Q59H18 1-835): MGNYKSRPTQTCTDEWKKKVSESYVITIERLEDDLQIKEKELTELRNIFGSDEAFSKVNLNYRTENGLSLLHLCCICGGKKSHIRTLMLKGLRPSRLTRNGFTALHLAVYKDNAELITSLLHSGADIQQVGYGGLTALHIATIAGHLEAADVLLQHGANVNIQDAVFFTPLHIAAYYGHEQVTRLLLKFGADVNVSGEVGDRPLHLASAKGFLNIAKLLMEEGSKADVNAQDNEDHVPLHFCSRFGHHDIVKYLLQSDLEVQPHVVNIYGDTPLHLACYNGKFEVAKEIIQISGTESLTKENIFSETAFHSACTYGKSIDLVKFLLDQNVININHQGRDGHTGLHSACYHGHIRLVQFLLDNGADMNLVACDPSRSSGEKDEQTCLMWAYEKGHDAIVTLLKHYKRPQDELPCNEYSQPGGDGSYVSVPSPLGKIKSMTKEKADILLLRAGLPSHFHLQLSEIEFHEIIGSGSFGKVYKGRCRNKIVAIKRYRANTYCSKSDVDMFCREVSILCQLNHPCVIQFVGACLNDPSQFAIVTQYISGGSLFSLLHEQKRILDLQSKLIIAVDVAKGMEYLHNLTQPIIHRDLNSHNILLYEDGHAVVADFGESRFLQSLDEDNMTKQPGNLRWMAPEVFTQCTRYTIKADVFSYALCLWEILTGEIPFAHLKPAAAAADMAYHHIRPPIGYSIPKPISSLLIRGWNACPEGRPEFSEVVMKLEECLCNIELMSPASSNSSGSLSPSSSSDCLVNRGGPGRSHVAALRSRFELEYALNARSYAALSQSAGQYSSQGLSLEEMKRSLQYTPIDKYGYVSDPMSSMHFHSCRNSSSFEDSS
Put plainly: KINOMEscan active-site competitive binding assay. The note with it: slash = two separate measurements.

The target in a further experiment is KIT (Homo sapiens, UniProt P10721). Put plainly: KINOMEscan active-site competitive binding assay. More on the design: purchased DiscoveRx (KINOMEscan service). Particulars: slash = two separate measurements.
The next experiment has as its target T16, RET^V804M (Homo sapiens, UniProt P07949, V804M).
T16 construct: purchased DiscoveRx (KINOMEscan service)
Put plainly: KINOMEscan active-site competitive binding assay.

“And” between values parts separate entries of the source, which are not always exact repeats. Identical values can stand only once.

T11 sequence (P00519 whole entry): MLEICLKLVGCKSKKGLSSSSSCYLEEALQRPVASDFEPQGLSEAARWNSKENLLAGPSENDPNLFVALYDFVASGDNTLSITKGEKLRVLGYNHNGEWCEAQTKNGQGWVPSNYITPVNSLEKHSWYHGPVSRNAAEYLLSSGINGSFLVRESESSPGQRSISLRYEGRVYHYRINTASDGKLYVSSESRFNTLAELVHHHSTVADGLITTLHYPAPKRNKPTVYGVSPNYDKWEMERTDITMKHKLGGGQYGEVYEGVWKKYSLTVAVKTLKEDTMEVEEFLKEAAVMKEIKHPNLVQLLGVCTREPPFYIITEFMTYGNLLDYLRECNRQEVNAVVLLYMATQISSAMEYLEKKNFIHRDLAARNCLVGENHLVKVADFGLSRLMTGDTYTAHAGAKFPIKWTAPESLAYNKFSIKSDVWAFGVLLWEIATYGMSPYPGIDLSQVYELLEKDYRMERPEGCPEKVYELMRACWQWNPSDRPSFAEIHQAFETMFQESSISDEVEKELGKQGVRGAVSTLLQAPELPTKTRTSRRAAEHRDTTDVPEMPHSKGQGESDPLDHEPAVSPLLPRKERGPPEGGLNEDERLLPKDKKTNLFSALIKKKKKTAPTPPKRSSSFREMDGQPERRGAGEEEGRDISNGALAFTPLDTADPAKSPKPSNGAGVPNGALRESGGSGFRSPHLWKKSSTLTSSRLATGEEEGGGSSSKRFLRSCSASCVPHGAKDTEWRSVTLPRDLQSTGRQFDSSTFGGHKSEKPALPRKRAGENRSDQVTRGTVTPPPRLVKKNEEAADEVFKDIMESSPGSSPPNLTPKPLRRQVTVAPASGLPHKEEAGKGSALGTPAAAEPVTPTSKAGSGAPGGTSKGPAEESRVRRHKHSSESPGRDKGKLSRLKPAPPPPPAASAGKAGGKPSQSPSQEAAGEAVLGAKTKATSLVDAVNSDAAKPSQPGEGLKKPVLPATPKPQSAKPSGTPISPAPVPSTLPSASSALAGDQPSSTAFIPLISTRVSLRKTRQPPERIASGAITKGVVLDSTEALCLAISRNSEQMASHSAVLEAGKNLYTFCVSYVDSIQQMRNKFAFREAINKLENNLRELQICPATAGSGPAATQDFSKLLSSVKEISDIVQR

Take `CNC(=O)c1cc(Oc2ccc(NC(=O)Nc3ccc(Cl)c(C(F)(F)F)c3)c(F)c2)cc[n+]1[O-]` [M‐2]: the Kd (in general, a measure of binding affinity in units of concentration) was 7.3 to 11 nM on PDGFRs; 24 nM on BRAF; 20 nM at MKNK2; 15 nM on TRKC; 6.7 nM on ZAK; 11 nM at PDGFRB. For the same molecule, the Kd worked out at 12 nM on KIT^V559D; 43 nM on CDK8; 34 nM on FLT3^N841I; 79 nM at TAK1; 19 nM on KIT^A829P; 23 nM at ABL1-np. Also, the Kd is 42 nM at MAP4K4; 300 nM on KIT^D816V; 160 nM at TNNI3K; 9.8 nM on KIT; 20 nM on RET^V804M. Also, in the experiment with HuLECs, the “Inhibition of VEGF‐C‐induced migration” value is recorded as “inhibited”. Moreover, the IC50 – broadly, the concentration needed to halve the response being measured – at FGFR2 was ~200 nM.
With `NC(=O)c1cc(Oc2ccc(NC(=O)Nc3ccc(Cl)c(C(F)(F)F)c3)c(F)c2)cc[n+]1[O-]` [M‐5], the Kd on PDGFRs stood at 11 nM; on BRAF, 17 nM; at MKNK2, 11 nM; on TRKC, 56 nM; at ZAK, 7 nM; at PDGFRB it was 11 nM. For the same molecule, the Kd at KIT^V559D is 9.6 nM; at CDK8, 140 nM; at FLT3^N841I it was 23 nM; on TAK1 it was 120 nM; at KIT^A829P, 19 nM; on ABL1-np, 20 nM. The Kd came to 89 nM at MAP4K4; 310 nM at KIT^D816V; 77 nM at TNNI3K; 5.8 nM on KIT; 25 nM at RET^V804M. Also, the “Inhibition of VEGF‐C‐induced migration” value in the experiment on HuLECs is given as “inhibited”. In addition, the IC50 on FGFR2 was ~1000 nM.
In the case of `CNC(=O)c1cc(Oc2ccc(NC(=O)Nc3ccc(Cl)c(C(F)(F)F)c3)c(F)c2)ccn1` [Regorafenib, reference compound], the Kd on MKNK2 was 90 nM and 64 nM; on TRKC it was 180 nM and 280 nM; on ZAK, 2.8 nM and 2 nM; on CDK8, 100 nM and 73 nM; at TAK1, 170 nM and 260 nM; on ABL1-np it was 32 nM and 16 nM. For the same molecule, the Kd was 450 nM and 400 nM on MAP4K4; 170 nM and 110 nM at TNNI3K.
